Test results published in patent US4713371A, “Anthracycline derivatives and their use as cytostatics” (Hoechst Aktiengesellschaft, priority 1983, dated 1987).
≈ marks a conversion by molar mass, not a printed value. Read-outs that look alike come from different tables or passages of the source.

How the values were obtained:
L1210 leukemia cells = assay: Formation of colonies of L1210 leukemia cells in soft agar; type: cell-based; conditions: Mus musculus
Description: (§1) The cytostatic activity of the compounds described in this text was determined on L1210 mouse leukemia cells. Specifically, the following test systems were used:
(b) Formation of colonies of L1210 leukemia cells in soft agar
This method is used to detect an effect of the test substance on the growth characteristics of the cells over several generations (with the cell cycle period being 10-12 hours, about 14 consecutive generations are observed in the 7-day test period).
In this test, substances having cytostatic effects bring about a reduction in the number of colonies found compared with an untreated control. Specifically, the test is carried out as follows:
500 leukemia cells per plate are incubated with various concentrations of the test substance at 37° C. for 1 hour. The cells are then washed twice with McCoy 5a medium and, after addition of 0.3% agar, are finally poured into Petri dishes. Controls are merely incubated with fresh medium. In some cases, in place of incubation for 1 hour, various concentrations of the test substance are mixed into the upper agar layer in order thus to achieve continuous exposure of the cells throughout the incubation time. After the agar has solidified, the plates are incubated in an incubator at 37° C. for 7 days (5% CO2, 95% relative humidity). Then the number of resulting colonies having a diameter of 60μ is counted. The results are reported as the number of colonies in the treated agar plates as a percentage of the untreated control. The IC50 is determined from the dose-activity curve thus obtained and serves as a measure of the action of the substance. The results for the compounds described in this text are summarized and compared with adriamycin in Table 1.

[1] = tested on: L1210 mouse leukemia cells; assay: Proliferation assay (14C-thymidine incorporation) on L1210 leukemia cells; type: cell-based; conditions: read-out: Proliferation test IC50
Description: as §1
In this method, the extent to which the cells can incorporate radioactive DNA precursors (for example ^14 C-labeled thymidine) in vitro is determined after incubation of the cells with various concentrations of the test substance. Untreated L1210 cells are subjected to the same test conditions and serve as the control. The method is briefly described below:
L1210 cells in the exponential phase of growth (5×10^3 /ml in RPMI 1640) are incubated in a microtiter plate with various concentrations of the test substance for 72 hours (37° C., 5% CO2, 95% relative humidity). The controls comprise cells which are merely incubated with fresh medium. All determinations are carried out in quadruplicate. After 65 hours, 50 μl of ^14 C-thymidine (1.5 μCi/ml) are added in order to radiolabel the DNA in the cells. After incubation for 7 hours, the cells are filtered off with suction, the DNA is precipitated with 5% strength trichloroacetic acid and is then washed consecutively with water and methanol.
After drying at 50° C. and addition of 5 ml of scintillation liquid, the radioactivity incorporated in the DNA is measured.
The results are reported as the ratio of the scintillation count after incubation with the test substance as a percentage of the untreated control. The dose-activity curve is derived from the figures thus measured, and the IC50, i.e. the concentration which decreases the incorporation of radioactive thymidine by 50% compared with the control under the test conditions, is determined graphically. The IC50 figures for the compounds described in this text are summarized and compared with adriamycin (ADM) in Table 1.

[2] = 168 h, 7 days incubation (continuous exposure), soft agar, L1210, read-out: Colony formation test IC50, 7 days incubation
[3] = 1 hour incubation, then washed, soft agar 7 days, L1210, read-out: Colony formation test IC50, 1 hour incubation
[4] = 72 hours incubation, L1210 cells, 14C-thymidine incorporation
[5] = L1210, 168 h, read-out: Colony formation test IC50, 7 days incubation
[6] = L1210, read-out: Colony formation test IC50, 1 hour incubation

Compound | IC50 (L1210 leukemia cells; [2]) | IC50 (L1210 leukemia cells; [3]) | IC50 [1, 4] | IC50 (L1210 leukemia cells; [5]) | IC50 (L1210 leukemia cells; [6]) | IC50 ([1]; L1210, 72 h)
COc1cccc2c1C(=O)c1c(O)c3c(c(O)c1C2=O)C[C@@](O)(C(=O)CO)C[C@@H]3O[C@H]1C[C@H](N)[C@H](O)[C@H](C)O1 [ADM, adriamycin, reference compound] | 22 ng/mL (≈ 40.5 nM) | 44 ng/mL (≈ 81 nM) | 6 ng/mL (≈ 11 nM) | – | – | –
CCC1(O)CC(OC2CC(N(C)C)C(OC3CCC(OC4CCC(O)C(C)O4)C(C)O3)C(C)O2)c2c(O)c3c(c(O)c2C1OC1CC(N(C)C)C(OC2CCC(OC4CCC(O)C(C)O4)C(C)O2)C(C)O1)C(=O)c1cccc(O)c1C3=O (stereo not shown) [Cytorhodin A] | 3 ng/mL (≈ 2.59 nM) | 1.3 ng/mL (≈ 1.12 nM) | 1.1 ng/mL (≈ 0.95 nM) | – | – | –
CCC1(O)CC(OC2CC(N(C)C)C(OC3CC(O)C(OC4CCC(=O)C(C)O4)C(C)O3)C(C)O2)c2c(O)c3c(c(O)c2C1OC1CC(N(C)C)C(OC2CCC(OC4CCC(O)C(C)O4)C(C)O2)C(C)O1)C(=O)c1cccc(O)c1C3=O (stereo not shown) [Cytorhodin B] | 3.4 ng/mL (≈ 2.9 nM) | 1.2 ng/mL (≈ 1.02 nM) | 2.8 ng/mL (≈ 2.39 nM) | – | – | –
CCC1(O)CC(OC2CC(N(C)C)C(OC3CC4OC5CC(=O)C(C)OC5OC4C(C)O3)C(C)O2)c2c(O)c3c(c(O)c2C1OC1CC(N(C)C)C(OC2CC4OC5CC(=O)C(C)OC5OC4C(C)O2)C(C)O1)C(=O)c1cccc(O)c1C3=O (stereo not shown) [Cytorhodin C] | – | – | – | 0.15 ng/mL (≈ 0.127 nM) | 3.4 ng/mL (≈ 2.88 nM) | 0.55 ng/mL (≈ 0.466 nM)
CCC1(O)CC(OC2CC(N(C)C)C(OC3CC4OC5CC(=O)C(C)OC5OC4C(C)O3)C(C)O2)c2c(O)c3c(c(O)c2C1OC1CC(N(C)C)C(OC2CCC(OC4C=CC(=O)C(C)O4)C(C)O2)C(C)O1)C(=O)c1cccc(O)c1C3=O (stereo not shown) [Cytorhodin D] | – | – | – | 3.7 ng/mL (≈ 3.18 nM) | 2.8 ng/mL (≈ 2.4 nM) | 0.28 ng/mL (≈ 0.24 nM)
CCC1(O)CCc2c(O)c3c(c(O)c2C1OC1CC(N(C)C)C(OC2CCC(OC4CCC(O)C(C)O4)C(C)O2)C(C)O1)C(=O)c1cccc(O)c1C3=O (stereo not shown) [Cytorhodin E] | 1.4 ng/mL (≈ 1.85 nM) | 28 ng/mL (≈ 37 nM) | 25 ng/mL (≈ 33.1 nM) | – | – | –
CCC1(O)CC(OC2CC(N(C)C)C(OC3CCC(OC4C=CC(=O)C(C)O4)C(C)O3)C(C)O2)c2c(O)c3c(c(O)c2C1OC1CC(N(C)C)C(OC2CCC(OC4C=CC(=O)C(C)O4)C(C)O2)C(C)O1)C(=O)c1cccc(O)c1C3=O (stereo not shown) [Cytorhodin F] | 28 ng/mL (≈ 24.4 nM) | 42 ng/mL (≈ 36.5 nM) | 2.4 ng/mL (≈ 2.09 nM) | – | – | –
CCC1(O)CC(OC2CCC(OC3CCC(OC4CCC(O)C(C)O4)C(C)O3)C(C)O2)c2c(O)c3c(c(O)c2C1C(=O)OC)C(=O)c1cccc(O)c1C3=O (stereo not shown) [Cytorhodin J] | – | – | 4400 ng/mL (≈ 5710 nM) | – | – | –
CCC1(O)CCc2c(O)c3c(c(O)c2C1OC1CC(N(C)C)C(OC2CC(O)C(OC4CCC(O)C(C)O4)C(C)O2)C(C)O1)C(=O)c1cccc(O)c1C3=O (stereo not shown) [Cytorhodin K] | 3 ng/mL (≈ 3.89 nM) | 31 ng/mL (≈ 40.2 nM) | 3.7 ng/mL (≈ 4.79 nM) | – | – | –
CCC1(O)CCc2c(O)c3c(c(O)c2C1OC1CC(N(C)C)C(OC2CCC(O)C(C)O2)C(C)O1)C(=O)c1cccc(O)c1C3=O (stereo not shown) [Cytorhodin L] | 210 ng/mL (≈ 327 nM) | 1750 ng/mL (≈ 2730 nM) | 300 ng/mL (≈ 467 nM) | – | – | –
CCC1(O)CCc2c(O)c3c(c(O)c2C1OC1CC(N(C)C)C(OC2CC(O)C(O)C(C)O2)C(C)O1)C(=O)c1cccc(O)c1C3=O (stereo not shown) [Cytorhodin M] | 160 ng/mL (≈ 243 nM) | 390 ng/mL (≈ 593 nM) | 280 ng/mL (≈ 426 nM) | – | – | –
CCC1(O)CC(OC2CC(N(C)C)C(OC3CC(O)C(OC4CCC(=O)C(C)O4)C(C)O3)C(C)O2)c2c(O)c3c(c(O)c2C1OC1CC(N(C)C)C(OC2CCC(OC4C=CC(=O)C(C)O4)C(C)O2)C(C)O1)C(=O)c1cccc(O)c1C3=O (stereo not shown) [Cytorhodin P] | 0.32 ng/mL (≈ 0.274 nM) | 2.8 ng/mL (≈ 2.4 nM) | 2.6 ng/mL (≈ 2.23 nM) | – | – | –
CCC1(O)CC(OC2CC(N(C)C)C(OC3CCC(OC4C=CC(=O)C(C)O4)C(C)O3)C(C)O2)c2c(O)c3c(c(O)c2C1OC1CC(N(C)C)C(OC2CCC(OC4CCC(O)C(C)O4)C(C)O2)C(C)O1)C(=O)c1cccc(O)c1C3=O (stereo not shown) [Cytorhodin V] | 0.27 ng/mL (≈ 0.234 nM) | 2 ng/mL (≈ 1.73 nM) | 2.9 ng/mL (≈ 2.51 nM) | – | – | –
